According to PubChem BioAssay (NCI):
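Growth conditions: 96-well plates. Treatment: test compound, 48 hours, 5 concentrations. Analysis: linear interpolation between bracketing concentrations; unreached endpoints set to highest concentration. GI50 is the concentration that inhibits growth by half. TGI marks complete inhibition of growth.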

Assays:
Assay in all cases: growth of human tumour cells (NCI), 48 h
SF-539 CNS = test system: SF-539 CNS
CAKI-1 renal = test system: CAKI-1 renal
A549 NSCLC = test system: A549 NSCLC
UACC-257 melanoma = test system: UACC-257 melanoma
MDA-MB-231 breast = test system: MDA-MB-231 breast
PC-3 prostate = test system: PC-3 prostate
CCRF-CEM leukemia = test system: CCRF-CEM leukemia
DU-145 prostate = test system: DU-145 prostate
HOP-92 NSCLC = test system: HOP-92 NSCLC
SF-295 CNS = test system: SF-295 CNS
OVCAR-4 ovarian = test system: OVCAR-4 ovarian
K-562 leukemia = test system: K-562 leukemia
MDA-MB-435 = test system: MDA-MB-435
HS 578T breast = test system: HS 578T breast
SK-MEL-28 melanoma = test system: SK-MEL-28 melanoma
UACC-62 melanoma = test system: UACC-62 melanoma
OVCAR-8 ovarian = test system: OVCAR-8 ovarian
T-47D breast = test system: T-47D breast
HL-60(TB) leukemia = test system: HL-60(TB) leukemia
UO-31 renal = test system: UO-31 renal
M14 melanoma = test system: M14 melanoma
SF-268 CNS = test system: SF-268 CNS
KM12 colon = test system: KM12 colon
ACHN renal = test system: ACHN renal
NCI/ADR-RES ovarian = test system: NCI/ADR-RES ovarian
SNB-75 CNS = test system: SNB-75 CNS
SR leukemia = test system: SR leukemia
HCC-2998 colon = test system: HCC-2998 colon
TK-10 renal = test system: TK-10 renal
786-0 renal = test system: 786-0 renal
HOP-62 NSCLC = test system: HOP-62 NSCLC
SW-620 colon = test system: SW-620 colon
LOX IMVI melanoma = test system: LOX IMVI melanoma
EKVX NSCLC = test system: EKVX NSCLC
HCT-15 colon = test system: HCT-15 colon
HT29 colon = test system: HT29 colon
IGROV1 ovarian = test system: IGROV1 ovarian
OVCAR-5 ovarian = test system: OVCAR-5 ovarian
SK-MEL-5 melanoma = test system: SK-MEL-5 melanoma
COLO 205 colon = test system: COLO 205 colon
SNB-19 CNS = test system: SNB-19 CNS
HCT-116 colon = test system: HCT-116 colon
MCF7 breast = test system: MCF7 breast
NCI-H226 lung = test system: NCI-H226 lung
NCI-H23 lung = test system: NCI-H23 lung
BT-549 breast = test system: BT-549 breast
RXF 393 renal = test system: RXF 393 renal
MOLT-4 leukemia = test system: MOLT-4 leukemia
A498 renal = test system: A498 renal
SK-MEL-2 melanoma = test system: SK-MEL-2 melanoma
NCI-H460 lung = test system: NCI-H460 lung
OVCAR-3 ovarian = test system: OVCAR-3 ovarian
SN12C renal = test system: SN12C renal
NCI-H522 lung = test system: NCI-H522 lung
RPMI-8226 leukemia = test system: RPMI-8226 leukemia

`CC(=O)OC1CC2C(C)(C)C(=O)C=C[C@]2(C)C2CC[C@]3(C)C(OCC(=O)[C@H]3c3ccoc3)[C@]12C` (stereo not given in full) showed a GI50 (SF-539 CNS) of 15.2 µM, a TGI (SF-539 CNS) of 31.3 µM and a GI50 (CAKI-1 renal) of 3.58 µM. It also gave a TGI (CAKI-1 renal) of 23.9 µM, a GI50 (A549 NSCLC) of 6.28 µM and a TGI (A549 NSCLC) of 23.1 µM. For the same compound, the GI50 (UACC-257 melanoma) was 2.51 µM, the TGI (UACC-257 melanoma) was 15 µM and the GI50 (MDA-MB-231 breast) was 8.99 µM. For the same compound, the TGI (MDA-MB-231 breast) was 29.4 µM, the GI50 (PC-3 prostate) was 3.88 µM and the TGI (PC-3 prostate) was 17.1 µM. The GI50 (CCRF-CEM leukemia) was 4.06 µM, the TGI (CCRF-CEM leukemia) was 16.3 µM and the GI50 (DU-145 prostate) was 3.89 µM. It also gave a TGI (DU-145 prostate) of 19.8 µM, a GI50 (HOP-92 NSCLC) of 10.7 µM and a TGI (HOP-92 NSCLC) of 35.5 µM. It also gave a GI50 (SF-295 CNS) of 16.5 µM, a TGI (SF-295 CNS) of 48.6 µM and a GI50 (OVCAR-4 ovarian) of 4.2 µM. The TGI (OVCAR-4 ovarian) was 17.2 µM, the GI50 (K-562 leukemia) was 2.25 µM and the TGI (K-562 leukemia) was 7.04 µM. The GI50 (MDA-MB-435) was 2.53 µM, the TGI (MDA-MB-435) was 8.58 µM and the GI50 (HS 578T breast) was 19.4 µM. For the same compound, the TGI (HS 578T breast) was over 100 µM, the GI50 (SK-MEL-28 melanoma) was 4.63 µM and the TGI (SK-MEL-28 melanoma) was 18.5 µM. For the same compound, the GI50 (UACC-62 melanoma) was 5.89 µM, the TGI (UACC-62 melanoma) was 21.7 µM and the GI50 (OVCAR-8 ovarian) was 8.3 µM. It also gave a TGI (OVCAR-8 ovarian) of 27.6 µM, a GI50 (T-47D breast) of 2.97 µM and a TGI (T-47D breast) of 15.4 µM. It also gave a GI50 (HL-60(TB) leukemia) of 3.11 µM, a TGI (HL-60(TB) leukemia) of 17.8 µM and a GI50 (UO-31 renal) of 10.1 µM. For the same compound, the TGI (UO-31 renal) was 22.6 µM, the GI50 (M14 melanoma) was 12.4 µM and the TGI (M14 melanoma) was 27.3 µM. The GI50 (SF-268 CNS) was 2.82 µM, the TGI (SF-268 CNS) was 10.5 µM and the GI50 (KM12 colon) was 3.77 µM. For the same compound, the TGI (KM12 colon) was 12.3 µM, the GI50 (ACHN renal) was 13.4 µM and the TGI (ACHN renal) was 31.4 µM. For the same compound, the GI50 (NCI/ADR-RES ovarian) was 5.07 µM, the TGI (NCI/ADR-RES ovarian) was 22.9 µM and the GI50 (SNB-75 CNS) was 4.68 µM. It also gave a TGI (SNB-75 CNS) of 17.1 µM, a GI50 (SR leukemia) of 2.27 µM and a TGI (SR leukemia) of 14.5 µM. The GI50 (HCC-2998 colon) was 11.3 µM, the TGI (HCC-2998 colon) was 24.7 µM and the GI50 (TK-10 renal) was 10.4 µM. It also gave a TGI (TK-10 renal) of 35.7 µM, a GI50 (786-0 renal) of 4.66 µM and a TGI (786-0 renal) of 21.7 µM. The GI50 (HOP-62 NSCLC) was 8.29 µM, the TGI (HOP-62 NSCLC) was 21.6 µM and the GI50 (SW-620 colon) was 11.1 µM. It also gave a TGI (SW-620 colon) of 39.3 µM, a GI50 (LOX IMVI melanoma) of 3.94 µM and a TGI (LOX IMVI melanoma) of 14.9 µM. The GI50 (EKVX NSCLC) was 18 µM, the TGI (EKVX NSCLC) was over 100 µM and the GI50 (HCT-15 colon) was 4.19 µM. It also gave a TGI (HCT-15 colon) of 15.8 µM, a GI50 (HT29 colon) of 2.76 µM and a TGI (HT29 colon) of 11.6 µM. It also gave a GI50 (IGROV1 ovarian) of 7.83 µM, a TGI (IGROV1 ovarian) of 34.9 µM and a GI50 (OVCAR-5 ovarian) of 23.9 µM. It also gave a TGI (OVCAR-5 ovarian) of 46.2 µM, a GI50 (SK-MEL-5 melanoma) of 11.5 µM and a TGI (SK-MEL-5 melanoma) of 28 µM. For the same compound, the GI50 (COLO 205 colon) was 1.91 µM, the TGI (COLO 205 colon) was 8.48 µM and the GI50 (SNB-19 CNS) was 6.53 µM. For the same compound, the TGI (SNB-19 CNS) was 21.2 µM, the GI50 (HCT-116 colon) was 3.42 µM and the TGI (HCT-116 colon) was 11.4 µM. The GI50 (MCF7 breast) was 6.6 µM, the TGI (MCF7 breast) was 35.7 µM and the GI50 (NCI-H226 lung) was 11.8 µM. The TGI (NCI-H226 lung) was 31.4 µM, the GI50 (NCI-H23 lung) was 8.66 µM and the TGI (NCI-H23 lung) was 26.5 µM. It also gave a GI50 (BT-549 breast) of 8.63 µM, a TGI (BT-549 breast) of 57.8 µM and a GI50 (RXF 393 renal) of 4.43 µM. The TGI (RXF 393 renal) was 18.8 µM, the GI50 (MOLT-4 leukemia) was 3.62 µM and the TGI (MOLT-4 leukemia) was 22.1 µM. For the same compound, the GI50 (A498 renal) was 12.7 µM, the TGI (A498 renal) was 29.7 µM and the GI50 (SK-MEL-2 melanoma) was 13.8 µM. The TGI (SK-MEL-2 melanoma) was 42.3 µM, the GI50 (NCI-H460 lung) was 3.93 µM and the TGI (NCI-H460 lung) was 15.2 µM. The GI50 (OVCAR-3 ovarian) was 5.56 µM, the TGI (OVCAR-3 ovarian) was 22.9 µM and the GI50 (SN12C renal) was 8.64 µM. The TGI (SN12C renal) was 28.6 µM, the GI50 (NCI-H522 lung) was 3.15 µM and the TGI (NCI-H522 lung) was 10.1 µM. The GI50 (RPMI-8226 leukemia) was 2.46 µM and the TGI (RPMI-8226 leukemia) was 6.8 µM.
